Source: US8314112B2 (Novartis AG, priority 2008, dated 2012)

These compounds were tested against T1, human ALK5 (kinase domain, ALK5 T204D) (Homo sapiens, UniProt P36897, T204D) (assay: ALK5 kinase assay ([33P] phosphate incorporation into casein)). Details: casein substrate, 1 μM unlabelled ATP.
T1 construct: The kinase domain of human ALK5 (amino acids 200-503); made in house; host or cells: insect cells (baculovirus)
T1 sequence (P36897 200-503 T204D): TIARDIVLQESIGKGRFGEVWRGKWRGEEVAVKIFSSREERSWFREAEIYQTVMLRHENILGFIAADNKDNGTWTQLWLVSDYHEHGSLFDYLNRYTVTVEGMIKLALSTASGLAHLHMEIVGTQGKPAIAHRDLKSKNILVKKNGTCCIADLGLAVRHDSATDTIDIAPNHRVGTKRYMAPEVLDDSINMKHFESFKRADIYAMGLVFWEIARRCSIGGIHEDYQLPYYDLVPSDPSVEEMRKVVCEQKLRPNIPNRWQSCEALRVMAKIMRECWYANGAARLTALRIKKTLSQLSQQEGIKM
Assay type: biochemical
Summary of the method: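 His-tagged human ALK5 T204D kinase domain (aa 200-503, constitutively active, baculovirus/insect-cell expressed), 50 ng/well, preincubated 10 min with compound and dephosphorylated casein (200 μg/well) in Tris pH 7.4/MgCl2/MnCl2. Reaction started with 1 μM ATP plus [33P]ATP, 50 min at room temperature, EDTA-stopped; casein-bound 33P counted by scintillation after filter capture.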

Compound	IC50 [nM]
Cc1cccc(-c2cc(-c3cncc(-c4cccc(CNCCO)c4)c3)c3cc[nH]c3n2)n1 [Example 132, 2-(3-{5-[6-(6-Methyl-pyridin-2-yl)-1H-pyrrolo[2,3-b]pyridin-4-yl]-pyridin-3-yl}-benzylamino)-ethanol]	5.3
Cc1cccc(-c2cc(-c3cncc(-c4ccc(CN5CCC(F)(F)C5)cc4)c3)c3cc[nH]c3n2)n1 [Example 134, 4-{5-[4-(3,3-Difluoro-pyrrolidin-1-ylmethyl)-phenyl]-pyridin-3-yl}-6-(6-methyl-pyridin-2-yl)-1H-pyrrolo[2,3-b]pyridine]	39
Cc1cccc(-c2cc(-c3cncc(-c4ccc(CN5CCN(C(C)C)CC5)cc4)c3)c3cc[nH]c3n2)n1 [Example 137, 4-{5-[4-(4-Isopropyl-piperazin-1-ylmethyl)-phenyl]-pyridin-3-yl}-6-(6-methyl-pyridin-2-yl)-1H-pyrrolo[2,3-b]pyridine]	9
COC(=O)CN(C)Cc1cccc(-c2cncc(-c3cc(-c4cccc(C)n4)nc4[nH]ccc34)c2)c1 [Example 141, [Methyl-(3-{5-[6-(6-methyl-pyridin-2-yl)-1H-pyrrolo[2,3-b]pyridin-4-yl]-pyridin-3-yl}-benzyl)-amino]-acetic acid methyl ester]	17
Cc1cccc(-c2nc(-c3cncc(-c4cccc(CN(C)CCO)c4)c3)c3cc[nH]c3n2)n1 [Example 144, 2-[Methyl-(3-{5-[2-(6-methyl-pyridin-2-yl)-7H-pyrrolo[2,3-d]pyrimidin-4-yl]-pyridin-3-yl}-benzyl)-amino]-ethanol]	19
Cc1cccc(-c2nc(-c3cncc(-c4cccc(CN(C)CC(=O)O)c4)c3)c3cc[nH]c3n2)n1 [Example 145]	26
COC(=O)CNCc1cccc(-c2cncc(-c3nc(-c4cccc(C)n4)nc4[nH]ccc34)c2)c1 [Example 146, (3-{5-[2-(6-Methyl-pyridin-2-yl)-7H-pyrrolo[2,3-d]pyrimidin-4-yl]-pyridin-3-yl}-benzylamino)-acetic acid methyl ester]	27
Cc1cccc(-c2nc(-c3cncc(-c4cccc(CNCCO)c4)c3)c3cc[nH]c3n2)n1 [Example 147, 2-(3-{5-[2-(6-Methyl-pyridin-2-yl)-7H-pyrrolo[2,3-d]pyrimidin-4-yl]-pyridin-3-yl}-benzylamino)-ethanol]	10
Cc1cccc(-c2nc(-c3cncc(-c4cccc(CNCC(=O)O)c4)c3)c3cc[nH]c3n2)n1 [Example 148, (3-{5-[2-(6-Methyl-pyridin-2-yl)-7H-pyrrolo[2,3-d]pyrimidin-4-yl]-pyridin-3-yl}-benzylamino)-acetic acid]	17
COC(=O)CNCc1ccc(-c2cncc(-c3nc(-c4cccc(C)n4)nc4[nH]ccc34)c2)cc1 [Example 149, (4-{5-[2-(6-Methyl-pyridin-2-yl)-7H-pyrrolo[2,3-d]pyrimidin-4-yl]-pyridin-3-yl}-benzylamino)-acetic acid methyl ester]	8
Cc1cccc(-c2nc(-c3cncc(-c4ccc(CNCC(=O)O)cc4)c3)c3cc[nH]c3n2)n1 [Example 150, (4-{5-[2-(6-Methyl-pyridin-2-yl)-7H-pyrrolo[2,3-d]pyrimidin-4-yl]-pyridin-3-yl}-benzylamino)-acetic acid]	17
Cc1cccc(-c2nc(-c3cncc(-c4ccc(CNCCO)cc4)c3)c3cc[nH]c3n2)n1 [Example 151]	5.8
Cc1cccc(-c2cc(-c3cncc(C#CCN4CCC(F)(F)C4)c3)c3cc[nH]c3n2)n1 [Example 155, 4-{5-[3-(3,3-Difluoro-pyrrolidin-1-yl)-prop-1-ynyl]-pyridin-3-yl}-6-(6-methyl-pyridin-2-yl)-1H-pyrrolo[2,3-b]pyridine]	48
Cc1cccc(-c2cc(-c3cncc(-c4cccc(CC(=O)O)c4)c3)c3cc[nH]c3n2)n1 [Example 156, (3-{5-[6-(6-Methyl-pyridin-2-yl)-1H-pyrrolo[2,3-b]pyridin-4-yl]-pyridin-3-yl}-phenyl)-acetic acid]	11
Cc1cccc(-c2cc(-c3cncc(C#CCN4CCOCC4)c3)c3cc[nH]c3n2)n1 [Example 158, 6-(6-Methyl-pyridin-2-yl)-4-[5-(3-morpholin-4-yl-prop-1-ynyl)-pyridin-3-yl]-1H-pyrrolo[2,3-b]pyridine]	27
Cc1cccc(-c2cc(-c3cncc(-c4ccc(C(C)(C)N(C)C)cc4)c3)c3cc[nH]c3n2)n1 [Example 160, Dimethyl-[1-methyl-1-(4-{5-[6-(6-methyl-pyridin-2-yl)-1H-pyrrolo[2,3-b]pyridin-4-yl]-pyridin-3-yl}-phenyl)-ethyl]-amine]	5.9
Cc1cccc(-c2cc(-c3cncc(-c4ccc(C(C)(C)N5CCOCC5)cc4)c3)c3cc[nH]c3n2)n1 [Example 161, 4-{5-[4-(1-Methyl-1-morpholin-4-yl-ethyl)-phenyl]-pyridin-3-yl}-6-(6-methyl-pyridin-2-yl)-1H-pyrrolo[2,3-b]pyridine]	19

Second part, the compound after the results:

IC50 [nM]	Compound
7	COC(=O)CNCc1ccc(-c2cncc(-c3cc(-c4cccc(C)n4)nc4[nH]ccc34)c2)cc1 [Example 133, (4-{5-[6-(6-methyl-pyridin-2-yl)-1H-pyrrolo[2,3-b]pyridin-4-yl]-pyridin-3-yl}-benzylamino)-acetic acid methyl ester]
3.3	Cc1cccc(-c2cc(-c3cncc(-c4ccc(CNCCO)cc4)c3)c3cc[nH]c3n2)n1 [Example 135, 2-(4-{5-[6-(6-Methyl-pyridin-2-yl)-1H-pyrrolo[2,3-b]pyridin-4-yl]-pyridin-3-yl}-benzylamino)-ethanol]
10	Cc1cccc(-c2cc(-c3cncc(-c4ccc(CNCC(=O)O)cc4)c3)c3cc[nH]c3n2)n1 [Example 136, (4-{5-[6-(6-Methyl-pyridin-2-yl)-1H-pyrrolo[2,3-b]pyridin-4-yl]-pyridin-3-yl}-benzylamino)-acetic acid]
11	Cc1cccc(-c2cc(-c3cncc(-c4ccc(CN5CC(O)C5)cc4)c3)c3cc[nH]c3n2)n1 [Example 138, 1-(4-{5-[6-(6-Methyl-pyridin-2-yl)-1H-pyrrolo[2,3-b]pyridin-4-yl]-pyridin-3-yl}-benzyl)-azetidin-3-ol]
9	Cc1cccc(-c2cc(-c3cncc(-c4ccc(CNCCCO)cc4)c3)c3cc[nH]c3n2)n1 [Example 139, 3-(4-{5-[6-(6-Methyl-pyridin-2-yl)-1H-pyrrolo[2,3-b]pyridin-4-yl]-pyridin-3-yl}-benzylamino)-propan-1-ol]
6.2	Cc1cccc(-c2cc(-c3cncc(-c4ccc(CNCCC(=O)O)cc4)c3)c3cc[nH]c3n2)n1 [Example 140, 3-(4-{5-[6-(6-Methyl-pyridin-2-yl)-1H-pyrrolo[2,3-b]pyridin-4-yl]-pyridin-3-yl}-benzylamino)-propionic acid]
10	Cc1cccc(-c2cc(-c3cncc(-c4cccc(CN(C)CCO)c4)c3)c3cc[nH]c3n2)n1 [Example 142, 2-[Methyl-(3-{5-[6-(6-methyl-pyridin-2-yl)-1H-pyrrolo[2,3-b]pyridin-4-yl]-pyridin-3-yl}-benzyl)-amino]-ethanol]
30	Cc1cccc(-c2cc(-c3cncc(-c4cccc(CN(C)CC(=O)O)c4)c3)c3cc[nH]c3n2)n1 [Example 143, [Methyl-(3-{5-[6-(6-methyl-pyridin-2-yl)-1H-pyrrolo[2,3-b]pyridin-4-yl]-pyridin-3-yl}-benzyl)-amino]-acetic acid]
10	COC(=O)CN(C)Cc1ccc(-c2cncc(-c3cc(-c4cccc(C)n4)nc4[nH]ccc34)c2)cc1 [Example 152, [Methyl-(4-{5-[6-(6-methyl-pyridin-2-yl)-1H-pyrrolo[2,3-b]pyridin-4-yl]-pyridin-3-yl}-benzyl)-amino]-acetic acid methyl ester]
11	Cc1cccc(-c2cc(-c3cncc(-c4ccc(CN(C)CCO)cc4)c3)c3cc[nH]c3n2)n1 [Example 153, 2-[Methyl-(4-{5-[6-(6-methyl-pyridin-2-yl)-1H-pyrrolo[2,3-b]pyridin-4-yl]-pyridin-3-yl}-benzyl)-amino]-ethanol]
6.4	Cc1cccc(-c2cc(-c3cncc(-c4ccc(CN(C)CC(=O)O)cc4)c3)c3cc[nH]c3n2)n1 [Example 154, [Methyl-(4-{5-[6-(6-methyl-pyridin-2-yl)-1H-pyrrolo[2,3-b]pyridin-4-yl]-pyridin-3-yl}-benzyl)-amino]-acetic acid acid]
8	Cc1cccc(-c2cc(-c3cncc(-c4ccc(CC(=O)O)cc4)c3)c3cc[nH]c3n2)n1 [Example 157, (4-{5-[6-(6-Methyl-pyridin-2-yl)-1H-pyrrolo[2,3-b]pyridin-4-yl]-pyridin-3-yl}-phenyl)-acetic acid]
6.5	Cc1cccc(-c2cc(-c3cncc(-c4ccc(CCC(=O)O)cc4)c3)c3cc[nH]c3n2)n1 [Example 159, 3-(4-{5-[6-(6-Methyl-pyridin-2-yl)-1H-pyrrolo[2,3-b]pyridin-4-yl]-pyridin-3-yl}-phenyl)-propionic acid]
7	Cc1cccc(-c2cc(-c3cncc(-c4ccc(C(C)(C)NCCO)cc4)c3)c3cc[nH]c3n2)n1 [Example 162, 2-[1-Methyl-1-(4-{5-[6-(6-methyl-pyridin-2-yl)-1H-pyrrolo[2,3-b]pyridin-4-yl]-pyridin-3-yl}-phenyl)-ethylamino]-ethanol]
